What all share (assay type): cell-based
The test system of experiment [1] is Wnt activity (Sp5-Luc reporter, TCF/LEF binding sites) in SW480 colon carcinoma cells. Kind of experiment: Screening assay for Wnt activity: Sp5-Luc reporter gene assay in stably transduced SW480 cells. As to conditions: Homo sapiens; for EC50: overnight incubation; for inhibition at 10 µM: read-out: percent inhibition at 10 μM (given for EC50 of >10 μM). Put shortly:
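Luminescence (BrightGlo) was normalised to DMSO-only wells and fitted with a four-parameter variable-slope model for EC50; beyond 10 μM, % inhibition at 10 μM is given. Stable Sp5-Luc SW480 reporter cells, 4,000/well in 1% FBS, were exposed overnight at 37 °C to compounds, top 10 μM, 1:3 dilutions, 0.1% DMSO.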
For orientation: Reporter assays use an easily measured gene product as a stand-in for the process of interest.

Experiment [2] deals with SW480 colon cancer cells. Kind of experiment: Cell viability assay (CellTiter-Blue) in SW480 colon cancer cells. The note with it: Homo sapiens, 96 h, four days; for EC50: CellTiter-Blue; for inhibition at 10 µM: read-out: percent inhibition at 10 μM (given for EC50 of >10 μM). The method in brief: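 SW480 cells (~2×10^3 per well) were exposed to compound for four days at 37 °C/5% CO2, using 8-point 1:3 dilutions from 10 μM to 0.0045 μM in duplicate. Viability was read by resazurin reduction (CellTiter-Blue, ~3 h, Ex 560/Em 590 nm). EC50 came from non-linear regression; above 10 μM, percent inhibition at 10 μM is given.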

Experiment [3] relates to IL-6 (THP-1 cells). The experiment can be described thus: Inhibition of IL-6 in LPS-stimulated THP-1 human monocyte cells (HTRF). The note with it: for EC50: inhibition of IL-6 in LPS-stimulated THP-1 cells, HTRF, 10-point dose-response starting from 10 μM; for inhibition at 10 µM: IL-6 assay in LPS-stimulated THP-1 cells, given only where EC50 >10 μM, meaning not given (top concentration 10 μM), read-out: percentage given in parentheses after EC50 >10. Put shortly: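 THP-1 cells, serum-reduced (1% FBS) for 24 h, were preincubated with compound (10-point 1:3 series from 10 μM, 0.1% DMSO) for 2 h, then stimulated with 500 ng/mL LPS for 22 h at 37° C. IL-6 was read by HTRF (665/620 nm ratio) and normalized to DMSO. EC50 from four-parameter fit; % inhibition at 10 μM given if EC50 >10 μM.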
On the technique in general: Time-resolved FRET reads energy transfer from a long-lived donor to a nearby acceptor.

Consider `CN(C)CCNc1cc(F)cc(-c2cccc3[nH]c(-c4n[nH]c5cnc(-c6ccccn6)cc45)cc23)c1` [Compound 476, N^1-(3-Fluoro-5-(2-(5-(pyridin-2-yl)-1H-pyrazolo[3,4-c]pyridin-3-yl)-1H-indol-4-yl)phenyl)-N^2,N^2-dimethylethane-1,2-diamine], for which the EC50 (as a rule, the midpoint of the concentration-response curve) in experiment [1] came out at 3.75 µM; in experiment [2], 2.85 µM; in experiment [3], 1.56 µM.

`Cc1ccncc1-c1cc2c(-c3cc4c(-c5cc(F)cc(CNS(C)(=O)=O)c5)cccc4[nH]3)n[nH]c2cn1` [Compound 481, N-(3-Fluoro-5-(2-(5-(4-methylpyridin-3-yl)-1H-pyrazolo[3,4-c]pyridin-3-yl)-1H-indol-4-yl)benzyl)methanesulfonamide]: the EC50 turned out to be 0.195 µM in experiment [1], 1.93 µM in experiment [2] and 1.18 µM in experiment [3].

For `CS(=O)(=O)NCc1cc(F)cc(-c2cccc3[nH]c(-c4n[nH]c5cnc(-c6cncc(NC(=O)c7ccccc7)c6)cc45)cc23)c1` [Compound 487, N-(5-(3-(4-(3-Fluoro-5-(methylsulfonamidomethyl)phenyl)-1H-indol-2-yl)-1H-pyrazolo[3,4-c]pyridin-5-yl)pyridin-3-yl)benzamide], the EC50 in experiment [1] is 0.8 µM; in experiment [2], above 10 µM; in experiment [3], above 10 µM. Besides, the inhibition at 10 µM in experiment [2] was 45.4%; in experiment [3] it was 28.8%.

In the case of `CS(=O)(=O)NCc1cc(F)cc(-c2cccc3[nH]c(-c4n[nH]c5cnc(-c6cncnc6)cc45)cc23)c1` [Compound 503, N-(3-Fluoro-5-(2-(5-(pyrimidin-5-yl)-1H-pyrazolo[3,4-c]pyridin-3-yl)-1H-indol-4-yl)benzyl)methanesulfonamide], the 50% effective concentration (EC50) in experiment [1] was determined as 0.56 µM; in experiment [2] it was 4 µM; in experiment [3], 2.98 µM.

As to `Nc1cncc(-c2cc3c(-c4cc5ncccc5[nH]4)n[nH]c3cn2)c1` [Compound 507, 5-(3-(1H-Pyrrolo[3,2-b]pyridin-2-yl)-1H-pyrazolo[3,4-c]pyridin-5-yl) pyridin-3-amine], the EC50 in experiment [1] is 0.248 µM; in experiment [2], 1.23 µM; in experiment [3], 0.404 µM.

For the compound `c1cnc2cc(-c3n[nH]c4cnc(-c5cncc(CNCC6CCCC6)c5)cc34)[nH]c2c1` [Compound 529, 1-(5-(3-(1H-Pyrrolo[3,2-b]pyridin-2-yl)-1H-pyrazolo[3,4-c]pyridin-5-yl)pyridin-3-yl)-N-(cyclopentylmethyl)methanamine], the half-maximal effective concentration (EC50) in experiment [1] is 2.31 µM; in experiment [2], above 10 µM; in experiment [3] it was 0.999 µM. In addition, the inhibition at 10 µM in experiment [2] turned out to be 0%.

Consider `Fc1ccccc1-c1cccc2[nH]c(-c3n[nH]c4cnc(-c5cn[nH]c5)cc34)cc12` [Compound 567, 3-(4-(2-Fluorophenyl)-1H-indol-2-yl)-5-(1H-pyrazol-4-yl)-1H-pyrazolo[3,4-c]pyridine], for which the EC50 is 0.203 µM in experiment [1], above 10 µM in experiment [2] and 0.438 µM in experiment [3]. Besides, the inhibition at 10 µM in experiment [2] is 46.1%.

For `CN(C)CCOc1cncc(-c2cc3c(-c4cc5c(-c6cccnc6)cccc5[nH]4)n[nH]c3cn2)c1` [Compound 591, N,N-Dimethyl-2-((5-(3-(4-(pyridin-3-yl)-1H-indol-2-yl)-1H-pyrazolo[3,4-c]pyridin-5-yl)pyridin-3-yl)oxy)ethan-1-amine], the EC50 in experiment [1] turned out to be 2.74 µM; in experiment [2], 2.78 µM; in experiment [3] it was 1.46 µM.

In the case of `Cn1cc(-c2cc3c(-c4cc5c(-c6ccncc6)cccc5[nH]4)n[nH]c3cn2)cn1` [Compound 600, 5-(1-Methyl-1H-pyrazol-4-yl)-3-(4-(pyridin-4-yl)-1H-indol-2-yl)-1H-pyrazolo[3,4-c]pyridine], the EC50 in experiment [1] is 0.027 µM; in experiment [2], above 10 µM; in experiment [3], 0.044 µM. In addition, the inhibition at 10 µM in experiment [2] was 45.1%.

As for `O=C(CC1CCNCC1)Nc1cncc(-c2cc3c(-c4cc5c(-c6ccccn6)cccc5[nH]4)n[nH]c3cn2)c1` [Compound 621, 2-(Piperidin-4-yl)-N-(5-(3-(4-(pyridin-2-yl)-1H-indol-2-yl)-1H-pyrazolo[3,4-c]pyridin-5-yl)pyridin-3-yl)acetamide], the inhibition at 10 µM in experiment [1] came to 46.2%; in experiment [2], 29.3%. Moreover, the EC50 was above 10 µM in experiment [1], above 10 µM in experiment [2] and 1.65 µM in experiment [3].

Regarding `c1cc(N2CCCCC2)c2cc(-c3n[nH]c4cnc(-c5cncc(OC6CCCCC6)c5)cc34)[nH]c2c1` [Compound 635, 5-(5-(Cyclohexyloxy)pyridin-3-yl)-3-(4-(piperidin-1-yl)-1H-indol-2-yl)-1H-pyrazolo[3,4-c]pyridine], the 50% effective concentration (EC50) in experiment [1] is 3.84 µM; in experiment [2] it was above 10 µM; in experiment [3], above 10 µM. The inhibition at 10 µM in experiment [2] came to 26.8%; in experiment [3], 0%.

For `c1cc(-c2ccoc2)c2cc(-c3n[nH]c4cnc(-c5cn[nH]c5)cc34)[nH]c2c1` [Compound 711, 3-(4-(Furan-3-yl)-1H-indol-2-yl)-5-(1H-pyrazol-4-yl)-1H-pyrazolo[3,4-c]pyridine], the values for the EC50 in experiment [1], in experiment [2] and in experiment [3] were 0.203 µM, above 10 µM and above 10 µM, respectively. Besides, the results for the inhibition at 10 µM in experiment [2] and in experiment [3] were 45.1% and 0%, respectively.

Take `c1csc(-c2cccc3[nH]c(-c4n[nH]c5cnc(C6CCNCC6)cc45)cc23)c1` [Compound 725, 5-(Piperidin-4-yl)-3-(4-(thiophen-2-yl)-1H-indol-2-yl)-1H-pyrazolo[3,4-c]pyridine]: the inhibition at 10 µM is 25.9% in experiment [1], 8.1% in experiment [2] and 45.4% in experiment [3]. Besides, the concentration giving a half-maximal response (EC50) in experiment [1], in experiment [2] and in experiment [3] was above 10 µM each time.

In the case of `CN(C)CCNc1cc(F)cc(-c2cccc3[nH]c(-c4n[nH]c5cnc(-c6cncc(O)c6)cc45)cc23)c1` [Compound 817, 5-(3-(4-(3-((2-(Dimethylamino)ethyl)amino)-5-fluorophenyl)-1H-indol-2-yl)-1H-pyrazolo[3,4-c]pyridin-5-yl)pyridin-3-ol], the EC50 amounted to 0.407 µM in experiment [1], 1.07 µM in experiment [2] and 0.232 µM in experiment [3].

Consider `Cn1cc(-c2cc3c(-c4cc5ncccc5[nH]4)n[nH]c3cn2)cn1` [Compound 1022, 5-(1-Methyl-1H-pyrazol-4-yl)-3-(1H-pyrrolo[3,2-b]pyridin-2-yl)-1H-pyrazolo[3,4-c]pyridine], for which the EC50 in experiment [1] was 0.047 µM; in experiment [2] it was 2.56 µM; in experiment [3], 0.344 µM.

For `CN(C)CCOc1cncc(-c2cc3c(-c4cc5ncccc5[nH]4)n[nH]c3cn2)c1` [Compound 1029, 2-((5-(3-(1H-Pyrrolo[3,2-b]pyridin-2-yl)-1H-pyrazolo[3,4-c]pyridin-5-yl)pyridin-3-yl)oxy)-N,N-dimethylethan-1-amine], the EC50 was 3.06 µM in experiment [1], above 10 µM in experiment [2] and 2.45 µM in experiment [3]. The inhibition at 10 µM in experiment [2] amounted to 17.1%.

Source of the values: US10166218B2, “3-(1H-indol-2-yl)-1H-pyrazolo[3,4-C]pyridines and therapeutic uses thereof” (Samumed, LLC, priority 2015, dated 2019).
